Where a SMILES comes first, the peptide text is derived from it. Bridges are numbered along the chain shown (N, C = ends). [ ]: non-standard residue; d: D form. The star is where a group is joined. Ileψ(thiazoline)Cys = CC[C@H](C)[C@H](N)C1=N[C@H](C(=O)*)CS1; dOrn = NCCC[C@@H](N)C(=O)O
Assays:
mites [1] = test: Control and elimination of mites in poultry flocks by bacitracin feed supplement (general finding); assay type: in vivo
Text: This unique use is for the control and elimination of mites in poultry flocks.

mites [2] = test: Treatment of mite-infested chicken flock with zinc bacitracin in the feed; assay type: in vivo
Text: The following example is offered to illustrate the manner in which the zinc bacitracin is used and the efficiency which it has realized. A flock of 10,000 Babcock chickens of an approximate age of 9-10 months, weighing approximately 3 pounds became heavily infested with mites. […] Ten months later the same flock again became mite infested.

| Compound | toxicity to mites (mites [1]; applicant's discovery, no details) | elimination of mites from infested poultry flock (mites [1]; between 100 and 200 grams of bacitracin per ton of poultry grain for several days) | disappearance of mites from infested flock (mites [2]; flock of 10,000 Babcock chickens, 9-10 months old, heavily infested, 100 grams per ton in normal feed for seven days) | effect of same treatment on re-infestation (mites [2]; same flock again mite infested ten months later, same treatment (100 grams per ton feed, seven days)) |
| --- | --- | --- | --- | --- |
| CC[C@H](C)[C@H](N)C1=N[C@H](C(=O)N[C@@H](CC(C)C)C(=O)N[C@H](CCC(=O)O)C(=O)N[C@H](C(=O)N[C@H]2CCCCNC(=O)[C@H](CC(N)=O)NC(=O)[C@@H](CC(=O)O)NC(=O)[C@H](Cc3cnc[nH]3)NC(=O)[C@@H](Cc3ccccc3)NC(=O)[C@H]([C@@H](C)CC)NC(=O)[C@@H](CCCN)NC2=O)[C@@H](C)CC)CS1 [bacitracin] ({Ileψ(thiazoline)Cys}-L[dE]IK[dOrn]I[dF]H[dD]N; lactam 4-C) | toxic to mites | substantially eliminate mites |  |  |
| zinc bacitracin |  |  | substantially all of the mites had disappeared | same effective results |

From patent US4335112A, “Method of treating mites in poultry” (priority 1981, dated 1982)
